In patent US20260055088A1, “HETEROCYCLIC COMPOUND, METHOD FOR PREPARING SAME, AND PHARMACEUTICAL USE THEREOF” (Jiangsu Hengrui Pharmaceuticals Co., Ltd., priority 2022, published 2026):

What was measured:
[1] = Pharmacokinetic evaluation in SD rats (i.g.); assay type: in vivo; settings: male, Sprague-Dawley (SD), rat, plasma, po, 50 mg/kg
Protocol: SD rats were used as test animals. After intragastric (i.g.) administration of the example compounds to SD rats, the plasma concentrations of the compounds at different time points were determined by the LC/MS/MS method. The pharmacokinetic behaviors of the compounds of the present disclosure in SD rats were studied, and their pharmacokinetic profiles were evaluated.
Compounds 16 and 32: Four male SD rats, provided by Vital River Laboratory Animal Technology Co., Ltd. The animals were fasted overnight and then intragastrically dosed.
Compound 38: Two male SD rats, provided by Zhejiang Vital River Laboratory Animal Technology Co., Ltd. The animals were fasted overnight and then intragastrically dosed.
Compounds 16 and 32: Certain amounts of the test compounds were weighed out, and 5% DMSO+5% tween 80+90% normal saline was added to prepare 0.2 mg/mL colorless clear solutions.
Compound 38: A certain amount of the test compound was weighed out, and 25% PEG400+75% (10% TPGS+1% HPMC K100LV) was added to prepare a 5 mg/mL colorless clear solution.
Compounds 16 and 32: The administration dose was 2 mg/kg, and the administration volume was 10.0 mL/kg.
Compound 38: The administration dose was 50 mg/kg, and the administration volume was 10.0 mL/kg.
(§1) 0.2-mL blood samples were collected from the orbit before administration and 0.25, 0.5, 1.0, 2.0, 4.0, 6.0, 8.0, 11.0, and 24.0 h after administration, placed into EDTA-K2 anticoagulation test tubes, and centrifuged at 10,000 rpm for 1 min (4° C.), and the plasma was separated within 1 h and stored with dry ice before analysis. The procedures from the blood collection to the centrifugation were performed under ice-bath conditions. Access to food was given 2 h after administration.
Compounds 16 and 32: Determination of the plasma concentrations of the test compounds in SD rats after the compounds were administered at different concentrations: A 25-μL sample of the SD rat plasma collected at each time point after administration was taken, and 200 μL of acetonitrile containing an internal standard (verapamil, 100 ng/mL) was added. The mixture was vortexed and centrifuged at 3700 rpm for 10 min. 0.1 μL of the supernatant was taken for LC/MS/MS analysis.
Compound 38: Determination of the plasma concentration of the test compound in SD rats after the compound was administered at different concentrations: A 25-μL sample of the SD rat plasma collected at each time point after administration was taken, and 200 μL of acetonitrile containing an internal standard (dexamethasone, 100 ng/mL) was added. The mixture was vortexed and centrifuged at 4000 rpm for 15 min. 1 μL of the supernatant was taken for LC/MS/MS analysis.

[2] = Pharmacokinetic evaluation in CD-1 mice (i.g.); assay type: in vivo; settings: male, mouse, plasma, po, 100 mg/kg
Protocol: CD-1 mice were used as test animals. After intragastric (i.g.) administration of the compound of the present disclosure to CD-1 mice, the plasma concentrations of the compound at different time points were determined by the LC/MS/MS method. The pharmacokinetic behavior of the compound of the present disclosure in CD-1 mice was studied, and its pharmacokinetic profile was evaluated.
Nine male CD-1 mice (3 mice per time point), provided by Vital River Laboratory Animal Technology Co., Ltd. (license: SCXK (Zhejiang) 2019-0001). The mice were intragastrically dosed.
A certain amount of the test compound was weighed out, and 25% PEG400+75% (10% TPGS+1% HPMC K100LV) was added to prepare a 10 mg/mL yellowish suspension.
The administration dose was 100 mg/kg, and the administration volume was 10 mL/kg.
as §1, with “The intragastric administration groups: 0.1-mL” for “0.2-mL”, “at −80° C.” for “with dry ice”, “conditions.” for “conditions. Access to food was given 2 h after administration.”
Determination of the plasma concentration of the test compound in CD-1 mice after the compound was administered at different concentrations: A 20-μL sample of the CD-1 mouse plasma collected at each time point after administration was taken, and 200 μL of acetonitrile containing an internal standard (dexamethasone, 100 ng/mL) was added to each sample to precipitate protein. The mixture was vortexed for 5 min and centrifuged at 4000 rpm for 15 min. 40 μL of the supernatant was taken, and 120 μL of water was added. The mixture was vortexed for 5 min, and 0.5 μL of the mixture was taken for LC/MS/MS analysis.

[3] = target: Nav1.8 ion channel stably expressed on HEK293 cells (Homo sapiens (Human), UniProt Q9Y5Y9); experiment: Inhibitory activity against Nav1.8, manual patch clamp; assay type: cell-based; settings: resting protocol (-80 mV to 10 mV), 1 μM TTX, read-out: IC50 for the inhibition of Nav1.8 channel activity
From the text: The objective of the experiment was to investigate the effects of the compounds on the Nav1.8 ion channel in ex vivo experiments. The Nav1.8 ion channel is stably expressed on HEK293 cells. After the Nav1.8 current stabilized, the effects of the compounds on the Nav1.8 ion channel were obtained by comparing the magnitudes of the Nav1.8 currents before and after the compounds were applied.
• 1) A patch clamp amplifier: patch clamp PC-505B (WARNER instruments)/MultiClamp 700A (Axon instrument) • 2) A digital-to-analog converter: Digidata 1440A (Axon CNS)/Digidata 1550A (Axon instruments) • 3) A micromanipulator: MP-225 (SUTTER instrument) • 4) An inverted microscope: TL4 (Olympus) • 5) Glass micropipette puller: PC-10 (NARISHIGE) • 6) Microelectrode glass capillaries: B12024F (Wuhan VitalSense Scientific Instruments Co., Ltd.) • 7) Dimethyl sulfoxide (DMSO) D2650 (Sigma-Aldrich) • 8) TTX AF3014 (Affix Scientific)
The compounds for preparing the intracellular and extracellular fluids were purchased from Sigma (St. Louis, MO) except for the NaOH and KOH for the acid-base titrations. The extracellular fluid (mM) was: NaCl, 137; KCl, 4; CaCl2, 1.8; MgCl2, 1; HEPES, 10; glucose, 10; pH 7.4 (NaOH titration). The intracellular fluid (mM) was: aspartic acid, 140; MgCl2, 2; EGTA, 11; HEPES, 10; pH 7.2 (CsOH titration). All test and control compound solutions contained 1 μM TTX.
The test compounds were stored at a concentration of 9 mM in dimethyl sulfoxide (DMSO). On the testing day, the compounds were further dissolved in the extracellular fluid to prepare the required concentrations.
1) After the compounds were prepared into solutions with specified concentrations, the compound solutions were sequentially added to channels in ascending order according to their concentrations, and each channel was labeled.
2) A cell was transferred to the perfusion chamber. Positive pressure was applied inside the electrode, and the electrode tip was brought into contact with the cell. The three-way valve of the suction device was switched to the state where all three ways were open, and negative pressure was then applied to the electrode, allowing a high-resistance seal to form between the electrode and the cell. The application of negative pressure was continued to rupture the cell membrane, leading to the formation of a current pathway.
3) After the cell membrane rupture current stabilized, perfusion was performed with different concentrations in sequence. If the current remained stable for at least one minute, perfusion was performed with the next concentration.
4) The perfusion chamber was cleaned. The perfusion chamber was rinsed with the compound solutions in descending order according to their concentrations, with each concentration applied for 20 s. Finally, the perfusion chamber was rinsed with the extracellular fluid for 1 min.
The cell was clamped at −80 mV and then depolarized to 10 mV using a square wave lasting for 10 ms to obtain a Nav1.8 current. This procedure was repeated once every 5 seconds. The maximum current induced by the square wave was detected. After the current stabilized, perfusion was performed with the test compounds. After the reaction stabilized, the strength of the blocking was calculated.
The data were stored on a computer system and analyzed. Data acquisition and analysis were performed using pCLAMP 10 (Molecular Devices, Union City, CA), and the results were reviewed by a manager. “Current stabilized” means that the changes in current over time were within a limited range. The magnitude of the current after stabilization was used to calculate the effect of the compound at this […].
The inhibitory activity of the compounds of the present disclosure against Nav1.8 was determined through the above assay.

[4] = Pharmacokinetic evaluation in dogs (i.g.); assay type: in vivo; settings: both sexes, dog, plasma, po, 2 mg/kg
Protocol: Dogs were used as test animals. After intragastric (i.g.) administration of the example compound to dogs, the plasma concentrations of the compound at different time points were determined by the LC/MS/MS method. The pharmacokinetic behavior of the compound of the present disclosure in dogs was studied, and its pharmacokinetic profile was evaluated.
The compound of Example 43.
Four dogs, with an equal number of males and females, provided by Weifang Shengnuo Laboratory Animal Breeding Co., Ltd (license: SCXK (Beijing) 2020-0009) and Beijing Institute of Xieerxin Biology Resource Co., Ltd (license: SCXK (Shandong) 20230001). The animals were fasted overnight and then intragastrically dosed.
A certain amount of the example compound was weighed out, and 5% DMSO+20% PG+20% PEG400+55% normal saline was added to prepare a […] colorless clear solution.
The administration dose was 2 mg/kg, and the administration volume was 10.0 mL/kg.
as §1, with “0.5-mL” for “0.2-mL”, “a forelimb vein” for “the orbit”, “11.0, 24.0, 48.0,” for “11.0,”, “72” for “24.0”
Determination of the plasma concentration of the test compound in dogs after the compound was administered at different concentrations: A 50-μL sample of the dog plasma collected at each time point after administration was taken, and 250 μL of acetonitrile containing an internal standard (labetalol, 1 μg/mL) was added. The mixture was vortexed and centrifuged at 3700 rpm for 10 min. 0.5 μL of the supernatant was taken for LC/MS/MS analysis.

[5] = read-out: Area under curve AUC0-t
[6] = read-out: Half-life T½ (converted)
[7] = read-out: Plasma concentration Cmax

Row | SMILES | AUC(0-t) [1, 5] | CL/F ([1]; read-out: Clearance rate CL/F) | half-life [1, 6] | Cmax [1, 7] | AUC(0-t) [2, 5] | CL/F ([2]; read-out: Clearance rate CL/F) | half-life [2, 6] | Cmax [2, 7] | IC50 [3] | AUC(0-t) [4, 5] | CL/F ([4]; read-out: Clearance rate CL/F) | half-life [4, 6] | Cmax [4, 7]
1 | COc1c([C@H]2[C@H](C(=O)Nc3ccnc(C4(N)CC4)c3)O[C@@](C)(C(F)(F)F)[C@H]2C)ccc(F)c1F [Example 38, (2R,3S,4S,5R)—N-(2-(1-Aminocyclopropyl)pyridin-4-yl)-3-(3,4-difluoro-2-methoxyphenyl)-4,5-dimethyl-5-(trifluoromethyl)tetrahydrofuran-2-carboxamide] | 18400 ng·h/mL | 42 mL/min/kg | 5.84 h | 1440 ng/mL | 76700 ng·h/mL | 20.3 mL/min/kg | 5.8 h | 6280 ng/mL | 2.2 nM | – | – | – | –
2 | COc1c([C@H]2[C@H](C(=O)Nc3cc[n+]([O-])c(/C(N)=N/O)c3)O[C@@](C)(C(F)(F)F)[C@H]2C)ccc(F)c1F [Example 43, 4-((2R,3S,4S,5R)-3-(3,4-Difluoro-2-methoxyphenyl)-4,5-dimethyl-5-(trifluoromethyl)tetrahydrofuran-2-carboxamido)-2-((Z)—N′-hydroxycarbamimidoyl)pyridine 1-oxide] | – | – | – | – | – | – | – | – | 0.3 nM | 250000 ng·h/mL | 0.128 mL/min/kg | 34.5 h | 5680 ng/mL
